Assay [1] addresses T1, FKBP51 (FK1 domain) (Homo sapiens, UniProt Q13451).
T1 sequence (Q13451 42-130 limits assumed): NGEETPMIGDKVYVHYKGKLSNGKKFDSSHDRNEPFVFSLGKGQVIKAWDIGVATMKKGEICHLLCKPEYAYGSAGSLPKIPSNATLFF
Nature of the assay: Fluorescence polarization assay, binding affinity to FKBP51 (FK1 domain). The conditions noted are these: fluorescence polarization assay using tracer 2b, read-out: FKBP51FK1 IC50. The procedure:
(§1) The binding affinites for FKBPs were determined as described in Kozany et al., ChemBioChem 10, 8, 2009, 1402-1410 using tracer 2b.
(§2) Table 1: Chemical compounds according to formula (I) used in fluorescence polarization assay: Binding affinity to FKBP51 (FK1 domain) and FKBP52 (FK1 domain)

The target of assay [2] is T2, FKBP52 (FK1 domain) (Homo sapiens, UniProt Q02790).
T2 sequence (Q02790 50-138 limits assumed): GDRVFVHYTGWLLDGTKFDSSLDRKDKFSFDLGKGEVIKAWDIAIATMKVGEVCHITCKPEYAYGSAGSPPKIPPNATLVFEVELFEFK
As to the kind of experiment: Fluorescence polarization assay, binding affinity to FKBP52 (FK1 domain). The conditions noted are these: fluorescence polarization assay using tracer 2b, read-out: FKBP52FK1 IC50. The procedure: as §1, §2

Where two headings read alike, the source gives them in different places.

One may read the IC50 as the concentration that gives 50% inhibition. On to `COc1ccc(CC[C@@H](OC(=O)[C@@H]2CCCCN2C(=O)C(=O)C2(O)CCCCC2C)c2cccc(OCC(=O)O)c2)cc1OC` (stereo in doubt) [Compound 6, 2-(3-((R)-3-(3,4-dimethoxyphenyl)-1-((S)-1-(2-((1R,2R)-1-hydroxy-2-methylcyclohexyl)-2-oxoacetyl)piperidine-2-carbonyloxy)propyl)phenoxy) acetic acid], for which the IC50 in assay [1] is 4.13 ± 0.2 µM; in assay [2] it was 2.64 ± 0.19 µM.

In the case of `CCC1CCCCC1(O)C(=O)C(=O)N1CCCC[C@H]1C(=O)O[C@H](CCc1ccc(OC)c(OC)c1)c1cccc(OCC(=O)O)c1` (stereo in doubt) [Compound 7, 2-(3-((R)-3-(3,4-dimethoxyphenyl)-1-((S)-1-(2-((1R,2R)-2-ethyl-1-hydroxycyclohexyl)-2-oxoacetyl)piperidine-2-carbonyloxy)propyl)phenoxy) acetic acid], the IC50 in assay [2] came out at 9.77 ± 1.48 µM.

In the case of `COc1ccc(CC[C@@H](OC(=O)[C@@H]2CCCCN2C(=O)C(=O)[C@]2(O)CCCC[C@H]2C)c2cccc(OCC(=O)O)c2)cc1OC` [Compound 1, 2-(3-((R)-3-(3,4-dimethoxyphenyl)-1-((S)-1-(2-((1S,2R)-1-hydroxy-2-methylcyclohexyl)-2-oxoacetyl)piperidine-2-carbonyloxy)propyl)phenoxy) acetic acid], the IC50 in assay [1] (listed as 1*) was found to be 4.2 ± 0.11 µM; in assay [2] (listed as 1*) it was 2.13 ± 0.21 µM.

With `COc1ccc(CC[C@@H](OC(=O)[C@@H]2CCCCN2C(=O)C(=O)[C@]2(O)CCCC[C@H]2C)c2cccc(OCC(=O)O)c2)cc1OC` [Compound 1a], the IC50 in assay [1] turned out to be 4.27 ± 0.19 µM; in assay [2], 2.44 ± 0.17 µM.

In the case of `COc1ccc(CC[C@@H](OC(=O)[C@@H]2CCCCN2C(=O)C(=O)[C@@]2(O)CCCC[C@@H]2C)c2cccc(OCC(=O)O)c2)cc1OC` [Compound 1b], the IC50 in assay [1] was 4.54 ± 0.24 µM; in assay [2], 2.88 ± 0.21 µM.

With `COc1ccc(CC[C@@H](OC(=O)[C@@H]2CCCCN2C(=O)C(=O)[C@]2(O)CCCC[C@H]2C)c2cccc(OCCN3CCOCC3)c2)cc1OC` [Compound 2, (S)—((R)-3-(3,4-dimethoxyphenyl)-1-(3-(2-morpholinoethoxy)phenyl)propyl) 1-(2-((1S,2R)-1-hydroxy-2-methylcyclohexyl)-2-oxoacetyl)piperidine-2-carboxylate], the half-maximal inhibitory concentration (IC50) in assay [1] was found to be 2.02 ± 0.14 µM; in assay [2] it was 0.89 ± 0.06 µM.

Regarding `CC[C@@H]1CCCC[C@@]1(O)C(=O)C(=O)N1CCCC[C@H]1C(=O)O[C@H](CCc1ccc(OC)c(OC)c1)c1cccc(OCC(=O)O)c1` [Compound 3, 2-(3-((R)-3-(3,4-dimethoxyphenyl)-1-((S)-1-(2-((1S,2R)-2-ethyl-1-hydroxy-cyclohexyl)-2-oxoacetyl)piperidine-2-carbonyloxy)propyl)phenoxy) acetic acid], the IC50 in assay [2] (listed as 3*) turned out to be 9.5 ± 1.3 µM.

Consider `CC[C@@H]1CCCC[C@@]1(O)C(=O)C(=O)N1CCCC[C@H]1C(=O)O[C@H](CCc1ccc(OC)c(OC)c1)c1cccc(OCC(=O)O)c1` [Compound 3a], for which the IC50 in assay [2] is 4.2 ± 0.3 µM.

For the compound `CC[C@H]1CCCC[C@]1(O)C(=O)C(=O)N1CCCC[C@H]1C(=O)O[C@H](CCc1ccc(OC)c(OC)c1)c1cccc(OCC(=O)O)c1` [Compound 3b], the concentration for half-maximal inhibition (IC50) in assay [2] worked out at 3.5 ± 0.6 µM.

On to `CC[C@@H]1CCCC[C@@]1(O)C(=O)C(=O)N1CCCC[C@H]1C(=O)O[C@H](CCc1ccc(OC)c(OC)c1)c1cccc(OCCN2CCOCC2)c1` [Compound 4, (S)—((R)-3-(3,4-dimethoxyphenyl)-1-(3-(2-morpholinoethoxy)phenyl)propyl)1-(2-((1S,2R)-2-ethyl-1-hydroxycyclohexyl)-2-oxoacetyl)piperidine-2-carboxylate], for which the figures for the IC50 in assay [1] and in assay [2] were 9.66 ± 0.83 µM and 3.72 ± 1.02 µM, respectively.

As to `COc1ccc(CC[C@@H](OC(=O)[C@@H]2CCCCN2C(=O)C(=O)[C@]2(O)CCCC[C@H]2CO)c2cccc(OCC(=O)O)c2)cc1OC` [Compound 5, 2-(3-((R)-3-(3,4-dimethoxyphenyl)-1-((S)-1-(2-((1S,2S)-1-hydroxy-2-(hydroxylmethyl)cyclohexyl)-2-oxoacetyl)piperidine-2-carbonyloxy)propyl)phenoxy)acetic acid], the results for the IC50 in assay [1] and in assay [2] were 8.5 ± 0.6 µM and 6.2 ± 0.5 µM, respectively.

For `COc1ccc(CC[C@@H](OC(=O)[C@@H]2CCCCN2C(=O)C(=O)[C@]2(O)CCCC[C@@H]2C)c2cccc(OCC(=O)O)c2)cc1OC` [Compound 6a], the IC50 stood at 4.18 ± 0.15 µM in assay [1] and 2.2 ± 0.13 µM in assay [2].

`COc1ccc(CC[C@@H](OC(=O)[C@@H]2CCCCN2C(=O)C(=O)[C@@]2(O)CCCC[C@H]2C)c2cccc(OCC(=O)O)c2)cc1OC` [Compound 6b]: the IC50 in assay [1] is 4.96 ± 0.25 µM; in assay [2], 2.64 ± 0.25 µM.

With `COc1ccc(CC[C@@H](OC(=O)[C@@H]2CCCCN2C(=O)C(=O)C2CCCCC2)c2cccc(OCC(=O)O)c2)cc1OC` [Compound 8], the 50% inhibitory concentration (IC50) came to 15.2 ± 1.04 µM in assay [1] and 9.53 ± 1.35 µM in assay [2].

Turning to `COc1ccc(CC[C@@H](OC(=O)[C@@H]2CCCCN2C(=O)C(=O)c2cc(OC)c(OC)c(OC)c2)c2cccc(OCC(=O)O)c2)cc1OC` [Compound 9, 2-(3-((R)-3-(3,4-dimethoxyphenyl)-1-((S)-1-(2-oxo-2-(3,4,5-tri-methoxyphenyl)acetyl)piperidine-2-carbonyloxy)propyl)phenoxy)acetic acid], the IC50 in assay [1] is 19.3 ± 6.6 µM; in assay [2], 11.6 ± 1.6 µM.

For `COc1ccc(CC[C@@H](OC(=O)[C@@H]2CCCCN2C(=O)C(=O)c2ccc(Oc3ccccc3)cc2)c2cccc(OCC(=O)O)c2)cc1OC` [Compound 10, 2-(3-((R)-3-(3,4-dimethoxyphenyl)-1-((S)-1-(2-oxo-2-(4-phenoxy-phenyl)acetyl)piperidine-2-carbonyloxy)propyl)phenoxy)acetic acid], the half-maximal inhibitory concentration (IC50) in assay [1] was 2.83 ± 0.21 µM; in assay [2], 1.71 ± 0.35 µM.

Consider `COc1ccc(CC[C@@H](OC(=O)[C@@H]2CCCCN2C(=O)C(=O)c2cc(Cl)cc(Cl)c2)c2cccc(OCC(=O)O)c2)cc1OC` [Compound 11, 2-(3-((R)-3-(3,4-dimethoxyphenyl)-1-((S)-1-(2-oxo-2-(3,5-dichloro-phenyl)acetyl)piperidine-2-carbonyloxy)propyl)phenoxy)acetic acid], for which the results for the IC50 in assay [1] and in assay [2] were 4.1 ± 0.8 µM and 5.6 ± 1.1 µM, respectively.

With `COc1ccc(CCOC(=O)C2CCCCN2C(=O)C(=O)[C@]2(O)CCCC[C@H]2C)cc1OC` (stereo partly drawn) [Reference Example 1*, 3,4-dimethoxyphenethyl 1-(2-((1S,2R)-1-hydroxy-2-methyl-cyclohexyl)-2-oxoacetyl)piperidine-2-carboxylate, reference compound], the IC50 in assay [1] and in assay [2] was more than 100 µM in each case.

Take `COc1ccc(OCCOC(=O)C2CCCCN2C(=O)C(=O)[C@]2(O)CCCC[C@H]2C)cc1OC` (stereo partly drawn) [Reference Example 2*, 2-(3,4-dimethoxyphenoxy)ethyl 1-(2-((1S,2R)-1-hydroxy-2-methyl-cyclohexyl)-2-oxoacetyl)piperidine-2-carboxylate, reference compound]: the IC50 in assay [1] stood at 29.4 ± 8.5 µM; in assay [2], 11.7 ± 6.4 µM.

For `CC[C@@H]1CCCC[C@@]1(O)C(=O)C(=O)N1CCCCC1C(=O)OCCOc1ccc(OC)c(OC)c1` (stereo partly drawn) [Reference Example 3*, 2-(3,4-dimethoxyphenoxy)ethyl 1-(2-((1S,2R)-2-ethyl-1-hydroxy-cyclohexyl)-2-oxoacetyl) piperidine-2-carboxylate, reference compound], the half-maximal inhibitory concentration (IC50) in assay [1] and in assay [2] was more than 100 µM throughout.

As for `CCC(C)(C)C(=O)C(=O)N1CCC[C@H]1C(=O)O[C@H](CCc1ccc(OC)c(OC)c1)c1cccc(OCC(=O)O)c1` [Reference Example 4, 2-(3-((R)-3-(3,4-dimethoxyphenyl)-1-((S)-1-(3,3-dimethyl-2-oxopentanoyl)-pyrrolidine-2-carbonyloxy)propyl)phenoxy)acetic acid, reference compound], the IC50 came to 51.5 ± 31.9 µM in assay [1] and 41.6 ± 15.8 µM in assay [2].

As to `CCC(C)(C)C(=O)C(=O)N1CC=CC[C@H]1C(=O)O[C@H](CCc1ccc(OC)c(OC)c1)c1cccc(OCC(=O)O)c1` [Reference Example 5, 2-(3-((R)-3-(3,4-dimethoxyphenyl)-1-((S)-1-(3,3-dimethyl-2-oxopentanoyl)-1,2,3,6-tetrahydropyridine-2-carbonyloxy)propyl)phenoxy)acetic acid, reference compound], the IC50 is 32.7 ± 12.3 µM in assay [1] and 49.2 ± 24.6 µM in assay [2].

In the case of `COc1ccc(CC[C@@H](OC(=O)[C@@H]2CCCCN2C(=O)C(=O)C(C)(C)C)c2cccc(OCC(=O)O)c2)cc1OC` [Reference Example 6, reference compound], the IC50 in assay [1] worked out at 38.4 ± 16.5 µM; in assay [2], 46.2 ± 18.8 µM.

`O=C(C(=O)N1CCCCC1C(=O)OCCCc1ccccc1)c1ccccc1` (stereo not drawn) [Reference Example 7, reference compound]: the IC50 in assay [1] and in assay [2] was more than 100 µM throughout.

With `CCC(C)(C)C(=O)C(=O)N1CCCC1C(=O)OC(CCc1ccccc1)c1ccccc1` (stereo not drawn) [Reference Example 8, reference compound], the IC50 is 89.5 ± 21.7 µM in assay [1] and more than 100 µM in assay [2].

As to `CC(C)C(C)(C)C(=O)C(=O)N1CCCC[C@H]1C(=O)O[C@H](CCc1ccccc1)c1ccccc1` [Reference Example 9, reference compound], the IC50 in assay [1] turned out to be 55.6 ± 13.1 µM; in assay [2], 61.2 ± 23.7 µM.

Source of the values: patent US20150018340A1, “PIPECOLATE-DIKETOAMIDES FOR TREATMENT OF PSYCHIATRIC DISORDERS” (MAX-PLANCK-GESELLSCHAFT ZUR FÖRDERUNG DER WISSENSCHAFTEN …, priority 2011, published 2015).
